From patent US10118901B2 (priority 2013, dated 2018)

Tests used:
[1] = molecular target: HDAC enzymes (Hela Nuclear Extract); type: biochemical
[2] = Water solubility; type: physicochemical; conditions: thermodynamic from solid; distilled water at room temperature, visual inspection
Protocol: To measure water solubility, to approximately 10 mg of a sample in a tube-stoppered 10 mL graduated cylinder, increasing volumes of distilled water at room temperature were added according to the steps shown in the table below:
After each addition of water to give the indicated total volume, the mixture was vortexed or sonicated for 1 min and was visually inspected for any undissolved parts of the sample. If, after a total of 10 mL of water had been added (step 5), the sample or parts of it remained undissolved, the contents of the measuring cylinder was transferred to a 100 mL measuring cylinder which was then filled up with water up to 100 mL (20 ml, 25 ml, 50 ml, 100 ml) and shaken. The approximate solubility was given in the table under that volume of added water in which complete dissolution of the sample occurred. If the substance was still apparently insoluble, further dilution was undertaken to ascertain whether the column elution or the flask solubility method should be used.

[3] = tested on: SR; assay: NCI-60 screen at 10 μM: SR; type: cell-based, human; conditions: Leukemia SR; 10 μM single dose; 48 hrs
Protocol: (§1) NL-101 and CY-102 was sent to U.S. National Cancer Institute (NCI) for NCI 60-cell line screening using a single compound dose (10 μM).
(§2) The human tumor cell lines of the cancer screening panel were grown in RPMI 1640 medium containing 5% fetal bovine serum (5% FBS) and 2 mM L-glutamine. For a typical screening experiment, cells were inoculated into 96-well microtiter plates in 100 μL, at plating densities ranging from 5,000 to 40,000 cells/well depending on the doubling time of individual cell lines. After cell inoculation, the microtiter plates were incubated at 37° C., 5% CO2, 95% air, and 100% relative humidity for 24 h prior to addition of experimental compounds. […]
(§3) Following drug addition, the plates were incubated for an additional 48 hrs at 37° C., 5% CO2, 95% air, and 100% relative humidity. […] Bound stain was subsequently solubilized with 10 mM trizma base, and the absorbance was read on an automated plate reader at a wavelength of 515 nm. […]
(§4) Using the seven absorbance measurements [time zero, (Tz), control growth, (C), and test growth in the presence of drug at the 10 μM concentration levels (Ti)], percentage growth was calculated at each of the drug concentrations levels. Percentage growth inhibition was calculated as: [(Ti−Tz)/(C−Tz)]×100 for which Ti>/=Tz or [(Ti−Tz)/Tz]×100 for which Ti<Tz.

[4] = tested on: NCI-H226; assay: NCI-60 screen at 10 μM: NCI-H226; type: cell-based, human; conditions: NSCLC NCI-H226; 10 μM single dose; 48 hrs
Protocol: as §1, §2, §3, §4

[5] = tested on: NCI-H23; assay: NCI-60 screen at 10 μM: NCI-H23; type: cell-based, human; conditions: NSCLC NCI-H23; 10 μM single dose; 48 hrs
Protocol: as §1, §2, §3, §4

[6] = tested on: SF-268; assay: NCI-60 screen at 10 μM: SF-268; type: cell-based, human; conditions: CNS Cancer (Glioma) SF-268; 10 μM single dose; 48 hrs
Protocol: as §1, §2, §3, §4

[7] = tested on: MALME-3M; assay: NCI-60 screen at 10 μM: MALME-3M; type: cell-based, human; conditions: Melanoma MALME-3M; 10 μM single dose; 48 hrs
Protocol: as §1, §2, §3, §4

[8] = tested on: UACC-62; assay: NCI-60 screen at 10 μM: UACC-62; type: cell-based, human; conditions: Melanoma UACC-62; 10 μM single dose; 48 hrs
Protocol: as §1, §2, §3, §4

[9] = tested on: 786-0; assay: NCI-60 screen at 10 μM: 786-0; type: cell-based, human; conditions: Renal Cancer 786-0; 10 μM single dose; 48 hrs
Protocol: as §1, §2, §3, §4

[10] = tested on: CAKI-1; assay: NCI-60 screen at 10 μM: CAKI-1; type: cell-based, human; conditions: Renal Cancer CAKI-1; 10 μM single dose; 48 hrs
Protocol: as §1, §2, §3, §4

[11] = tested on: MDA-MB-231; assay: NCI-60 screen at 10 μM: MDA-MB-231; type: cell-based, human; conditions: Breast Cancer MDA-MB-231; 10 μM single dose; 48 hrs
Protocol: as §1, §2, §3, §4

[12] = molecular target: hERG (Human Ether-á-go-go-Related-Gene) (Homo sapiens, UniProt Q12809)
hERG (Human Ether-á-go-go-Related-Gene), sequence (Q12809 whole entry): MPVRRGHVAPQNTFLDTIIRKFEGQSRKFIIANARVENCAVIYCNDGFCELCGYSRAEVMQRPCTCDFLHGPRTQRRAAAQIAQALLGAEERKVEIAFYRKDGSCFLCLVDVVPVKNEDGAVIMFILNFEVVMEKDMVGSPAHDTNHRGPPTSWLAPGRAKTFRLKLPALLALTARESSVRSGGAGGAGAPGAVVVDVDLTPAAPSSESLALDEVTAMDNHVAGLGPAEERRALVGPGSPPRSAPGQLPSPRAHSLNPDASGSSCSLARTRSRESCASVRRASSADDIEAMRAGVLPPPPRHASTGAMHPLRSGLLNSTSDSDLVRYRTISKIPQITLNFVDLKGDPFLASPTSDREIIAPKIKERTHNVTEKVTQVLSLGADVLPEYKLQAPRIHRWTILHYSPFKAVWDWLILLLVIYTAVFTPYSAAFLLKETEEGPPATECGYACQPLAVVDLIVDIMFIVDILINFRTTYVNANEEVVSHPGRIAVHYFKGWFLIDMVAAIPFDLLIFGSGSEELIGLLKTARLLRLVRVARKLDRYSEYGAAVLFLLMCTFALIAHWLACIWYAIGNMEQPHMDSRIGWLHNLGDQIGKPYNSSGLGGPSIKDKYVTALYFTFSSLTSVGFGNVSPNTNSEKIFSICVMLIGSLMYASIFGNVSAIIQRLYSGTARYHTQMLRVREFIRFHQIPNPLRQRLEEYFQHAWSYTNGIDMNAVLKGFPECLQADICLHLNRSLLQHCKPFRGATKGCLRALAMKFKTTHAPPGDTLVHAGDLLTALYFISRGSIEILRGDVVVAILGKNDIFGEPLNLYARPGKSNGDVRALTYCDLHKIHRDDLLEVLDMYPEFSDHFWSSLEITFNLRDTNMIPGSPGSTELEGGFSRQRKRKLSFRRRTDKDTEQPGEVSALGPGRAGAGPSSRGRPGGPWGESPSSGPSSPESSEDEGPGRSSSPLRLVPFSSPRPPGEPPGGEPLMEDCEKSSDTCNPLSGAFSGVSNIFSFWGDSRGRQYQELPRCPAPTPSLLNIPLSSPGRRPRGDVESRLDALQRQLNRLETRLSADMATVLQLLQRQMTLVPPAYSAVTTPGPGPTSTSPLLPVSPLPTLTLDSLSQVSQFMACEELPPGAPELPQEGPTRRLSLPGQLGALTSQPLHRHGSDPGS

[13] = tested on: NCI-60 cell lines; assay: NCI-60 cell line panel screening of NL-101 (NSC#751447); type: cell-based, human
[14] = tested on: CCRF-CEM; assay: NCI-60 screen at 10 μM: CCRF-CEM; type: cell-based, human; conditions: Leukemia CCRF-CEM; 10 μM single dose; 48 hrs
Protocol: as §1, §2, §3, §4

[15] = tested on: EKVX; assay: NCI-60 screen at 10 μM: EKVX; type: cell-based, human; conditions: NSCLC EKVX; 10 μM single dose; 48 hrs
Protocol: as §1, §2, §3, §4

[16] = tested on: NCI-H522; assay: NCI-60 screen at 10 μM: NCI-H522; type: cell-based, human; conditions: NSCLC NCI-H522; 10 μM single dose; 48 hrs
Protocol: as §1, §2, §3, §4

[17] = tested on: SF-539; assay: NCI-60 screen at 10 μM: SF-539; type: cell-based, human; conditions: CNS Cancer (Glioma) SF-539; 10 μM single dose; 48 hrs
Protocol: as §1, §2, §3, §4

| SMILES | IC50 ([1]; Hela nuclear extract, N/A* = No HDAC activity up to highest testing concentration of 10 μM) | fold more potent than SAHA in the HDAC (nuclear extract) assay ([1]; versus SAHA) | solubility at 1 min [2] | Growth % [3] | Growth % [4] | Growth % [5] | Growth % [6] | Growth % [7] | Growth % [8] | Growth % [9] | Growth % [10] | Growth % [11] | fold less cardiotoxicity compared to NL-101 (hERG assay) [12] | IC50 ([13]; Homo sapiens, on average, read-out: average cellular IC50 in the 60 cancer cell lines) | fold more potent than Bendamustine in the NCI-60 cell lines ([13]; versus Bendamustine) | Growth % [14] | Growth % [15] | Growth % [16] | Growth % [17] |
| --- | --- | --- | --- | --- | --- | --- | --- | --- | --- | --- | --- | --- | --- | --- | --- | --- | --- | --- | --- |
| Cn1c(CCNCc2ccc(/C=C/C(=O)NO)cc2)nc2cc(N(CCCl)CCCl)ccc21 [CY-102] | 3.5 nM | about 10 fold | > 20 mg/mL | 0.09% | −20.77% | −6.76% | −31.46% | −64.17% | −69.24% | −30.40% | −25.49% | −35.33% | 5-10 fold | – | – | – | – | – | – |
| Cn1c(CCCCCCC(=O)NO)nc2cc(N(CCCl)CCCl)ccc21 [NL-101] | – | – | – | 29.62% | 60.27% | 30.14% | 10.27% | 28.59% | 12.99% | 19.82% | 27.64% | 72.24% | – | ~2000 nM | 25-100 fold | 17.16% | 92.48% | −5.90% | 23.72% |
